In patent US11576923B2, “Composition for improving skin elasticity comprising novel ginsenoside” (AMOREPACIFIC CORPORATION, priority 2019, dated 2023):

Tests used:
Assay type in all cases: cell-based
SH-SY5Y cells = assay: Cytotoxicity (CCK-8 cell viability); conditions: 0.1, 1, 5, 10, 20 and 50 μM, FIG. 19
Procedure: Cell growth in the presence of the novel ginsenoside GS #10 according to an exemplary embodiment of the present disclosure was evaluated using a cell counting kit (CCK-8) in order to exclude the possibility that the ginsenoside may affect the effect of improving skin elasticity or improving wrinkles through cytotoxic activity. The experimental method is as follows.
10 μL of a CCK-8 reagent was added to SH-SY5Y cells (Dojindo, Md., USA) in a 96-well plate and left at 37° C. for 2 hours. Then, absorbance was measured at 450 nm. Cell viability was represented as the percentage (%) of the absolute optical density of each sample relative to an untreated sample. The concentration of the novel ginsenoside GS #10 according to an exemplary embodiment of the present disclosure in the medium in which the cells were cultured was 0.1, 1, 5, 10, 20 and 50 μM, respectively.

[1] = tested on: collagen biosynthesis in normal human dermal fibroblasts (NHDFs); assay: Collagen biosynthesis-promoting effect (procollagen mRNA by Q-PCR, secreted collagen protein by ELISA)
Procedure: Normal human dermal fibroblasts (NHDFs; ATCC) were cultured in Dulbecco's modified Eagle's medium (Sigma) supplemented with 10% fetal bovine serum (FBS; Hyclone) and 1 (w/v) % penicillin/streptomycin (Sigma) at 37° C. in a 5% CO2 incubator. For collagen synthesis, after replacing the medium with serum-free Dulbecco's modified Eagle's medium, the cells were treated with GS #10, which is a novel ginsenoside according to an exemplary embodiment of the present disclosure, and ginsenosides GS #01-GS #06 as comparative examples of the present disclosure, which were isolated from the ginseng seed extract, for 24 hours at a concentration of 10 μg/mL, respectively. Fibroblast growth factor 1 (FGF1) was used as a positive control group for inducing collagen synthesis. After recovering the cells and extracting RNA using a TRIzol™ reagent (Thermo), cDNA was synthesized using a ReverdAid 1st strand cDNA synthesis kit (Thermo). Then, the change in the amount of procollagen mRNA was observed using a gene amplifier (CFX96 thermocycler, Bio-Rad) (FIG. 11), and the amount of the collagen protein secreted to the medium was measured using a collagen ELISA kit (Abcam) (FIG. 12) […]

[2] = tested on: matrix metalloproteinase-1 (MMP-1) expression in normal human dermal fibroblasts (NHDFs); assay: Collagen degradation-inhibiting effect (TNFα-induced MMP-1 mRNA by Q-PCR, secreted MMP-1 protein by ELISA)
Description: For skin elasticity to be maintained, the synthesis of collagen should be promoted and its degradation should be inhibited. Because collagen is degraded by matrix metalloproteinase-1 (MMP-1), it was investigated whether the ginseng seed-derived ginsenosides inhibit the expression of the collagen-degrading enzyme. After pretreating normal human dermal fibroblasts (NHDFs; ATCC) with GS #10, which is a novel ginsenoside according to an exemplary embodiment of the present disclosure, and ginsenosides GS #01-GS #06 as comparative examples of the present disclosure, which were isolated from the ginseng seed extract, under a serum-free condition in the same manner as in Test Example 1 for 2 hours at a concentration of 10 μg/mL, respectively, the cells were treated for 24 hours with a substance capable of inducing inflammatory response (TNFα; 10 ng/mL), which can promote the expression of MMP-1. After preparing RNA and cDNA in the same manner as in Test Example 1, the expression of MMP-1 mRNA was investigated by Q-PCR (FIG. 13), and the amount of the secreted MMP-1 protein was analyzed using a human MMP-1 ELISA kit (Abcam) (FIG. 14). […] Through this, it was confirmed that Compound 10 (GS #10), which is a novel ginsenoside of the present disclosure, can effectively improve skin elasticity by alleviating or delaying the decline in skin elasticity and the formation of wrinkles. […]

**Q.** Which results are given for `CC1(C)C(=O)CC[C@@]2(C)C1[C@@H](O[C@H]1OC(CO)[C@H](O)C(O)C1O[C@H]1OC(CO)[C@H](O)C(O)C1O)C[C@]1(C)C2C[C@@H](O)C2C([C@]3(C)CC[C@H](C(C)(C)O)O3)CC[C@]21C` (stereo partly drawn) [Compound 10, (20S,24R)-6-O-β-D-glucopyranosyl(1→2)-β-D-glucopyranoside-dammar-3-one-20,24-epoxy-6a,12b,25-triol]?
**A.** cytotoxicity (cell viability, CCK-8) (SH-SY5Y cells): did not exhibit cytotoxicity up to 50 μM; increase in the amount of collagen due to promoted collagen biosynthesis ([1]; NHDFs, 10 μg/mL, 24 hours, serum-free, vs control group (−), FIG. 11 and FIG. 12): about 2 times; increase of collagen synthesis ([1]; Test Example 3, same manner as Test Example 1, FIG. 15 and FIG. 16): ≥ 2 times; effect of inhibiting MMP-1 expression as compared to Compounds 1-6 ([2]; NHDFs, 10 μg/mL pretreatment 2 hours, then TNFα 10 ng/mL 24 hours, FIG. 13 and FIG. 14): 2-3 times higher; effect of inhibiting collagen degradation as compared to the three red ginseng marker ginsenosides ([2]; Test Example 3, same manner as Test Example 2, FIG. 17 and FIG. 18): remarkably excellent effect of inhibiting collagen degradation
